# From PubChem BioAssay AID1259411 (Chemical Carcinogenesis Research Information System (CCRIS), 2018)
# Calls of active or inactive are those of the source. No rule for the calls is given here.
# Tested on: rodent carcinogenicity bioassays, tumor incidence
# Test: CCRIS carcinogenicity studies
# Details: Dose: 0, Dose: 0
# In short: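 NCI-built, expert-reviewed records of carcinogenicity and related test outcomes (mutagenicity, tumor promotion/inhibition) compiled from published and report sources, historical span 1985-2011, not updated.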
structure (smiles),measurement,setting,value
C=CC(=O)OCC,carcinogen call,"Species: MOUSE, Strain/Sex: B6C3F1/FEMALE, Route: GAVAGE, 100, 200 MG/KG IN CORN OIL FOR 103 WK, 100, 200 MG/KG IN CORN OIL FOR 103 WK, Tumor Site: Type of Lesion: FORESTOMACH: SQUAMOUS CELL PAPILLOMA OR CARCINOMA",active; positive
same,carcinogen call,"Species: MOUSE, Strain/Sex: B6C3F1/FEMALE, Route: INHALATION, 5 PPM 6 HR/D 5 D/WK FOR 24 MO (STUDY DURATION: 24 MO)",inactive; negative
same,carcinogen call,"Species: MOUSE, Strain/Sex: B6C3F1/FEMALE, Route: INHALATION, 25, 75 PPM 6 HR/D 5 D/WK FOR 27 MO (STUDY DURATION: 27 MO), 25, 75 PPM 6 HR/D 5 D/WK FOR 27 MO (STUDY DURATION: 27 MO)",inactive; negative
same,carcinogen call,"Species: MOUSE, Strain/Sex: B6C3F1/FEMALE, Route: INHALATION, 225 PPM 6 HR/D 5 D/WK FOR 6 MO (STUDY DURATION: 27 MO)",inactive; negative
same,carcinogen call,"Species: MOUSE, Strain/Sex: B6C3F1/MALE, Route: GAVAGE, 100, 200 MG/KG IN CORN OIL FOR 103 WK, 100, 200 MG/KG IN CORN OIL FOR 103 WK, Tumor Site: Type of Lesion: FORESTOMACH: SQUAMOUS CELL PAPILLOMA, SQUAMOUS CELL CARCINOMA",active; positive
same,carcinogen call,"Species: MOUSE, Strain/Sex: B6C3F1/MALE, Route: INHALATION, 5 PPM 6 HR/D 5 D/WK FOR 24 MO (STUDY DURATION: 24 MO)",inactive; negative
same,carcinogen call,"Species: MOUSE, Strain/Sex: B6C3F1/MALE, Route: INHALATION, 25, 75 PPM 6 HR/D 5 D/WK FOR 27 MO (STUDY DURATION: 27 MO), 25, 75 PPM 6 HR/D 5 D/WK FOR 27 MO (STUDY DURATION: 27 MO)",inactive; negative
same,carcinogen call,"Species: MOUSE, Strain/Sex: B6C3F1/MALE, Route: INHALATION, 225 PPM 6 HR/D 5 D/WK FOR 6 MO (STUDY DURATION: 27 MO)",inactive; negative
same,carcinogen call,"Species: MOUSE, Strain/Sex: C3H/MALE, Route: DERMAL, 23 MG IN 25 µL ACETONE 3/WK FOR LIFESPAN (STUDY DURATION: LIFESPAN)",inactive; negative
same,carcinogen call,"Species: MOUSE, Strain/Sex: TGAC/FEMALE, Route: DERMAL, 60, 300, 600 UMOL IN 200 µL ACETONE 3/WK FOR 20 WK (STUDY DURATION: 20 WK), 60, 300, 600 UMOL IN 200 µL ACETONE 3/WK FOR 20 WK (STUDY DURATION: 20 WK)",inactive; negative
same,carcinogen call,"Species: RAT, Strain/Sex: F344/FEMALE, Route: GAVAGE, 100, 200 MG/KG IN CORN OIL FOR 103 WK, 100, 200 MG/KG IN CORN OIL FOR 103 WK, Tumor Site: Type of Lesion: FORESTOMACH: SQUAMOUS CELL PAPILLOMA, SQUAMOUS CELL PAPILLOMA OR CARCINOMA",active; positive
same,carcinogen call,"Species: RAT, Strain/Sex: F344/FEMALE, Route: INHALATION, 5 PPM 6 HR/D 5 D/WK FOR 24 MO (STUDY DURATION: 24 MO)",inactive; negative
same,carcinogen call,"Species: RAT, Strain/Sex: F344/FEMALE, Route: INHALATION, 25, 75 PPM 6 HR/D 5 D/WK FOR 27 MO (STUDY DURATION: 27 MO), 25, 75 PPM 6 HR/D 5 D/WK FOR 27 MO (STUDY DURATION: 27 MO)",inactive; negative
same,carcinogen call,"Species: RAT, Strain/Sex: F344/FEMALE, Route: INHALATION, 225 PPM 6 HR/D 5 D/WK FOR 6 MO (STUDY DURATION: 27 MO)",inactive; negative
same,carcinogen call,"Species: RAT, Strain/Sex: F344/MALE, Route: GAVAGE, 100, 200 MG/KG IN CORN OIL FOR 103 WK, 100, 200 MG/KG IN CORN OIL FOR 103 WK, Tumor Site: Type of Lesion: FORESTOMACH: SQUAMOUS CELL PAPILLOMA, SQUAMOUS CELL CARCINOMA",active; positive
same,carcinogen call,"Species: RAT, Strain/Sex: F344/MALE, Route: INHALATION, 5 PPM 6 HR/D 5 D/WK FOR 24 MO (STUDY DURATION: 24 MO)",inactive; negative
same,carcinogen call,"Species: RAT, Strain/Sex: F344/MALE, Route: INHALATION, 25, 75 PPM 6 HR/D 5 D/WK FOR 27 MO (STUDY DURATION: 27 MO), 25, 75 PPM 6 HR/D 5 D/WK FOR 27 MO (STUDY DURATION: 27 MO)",inactive; negative
same,carcinogen call,"Species: RAT, Strain/Sex: F344/MALE, Route: INHALATION, 225 PPM 6 HR/D 5 D/WK FOR 6 MO (STUDY DURATION: 27 MO)",inactive; negative
OCC1CO1 (stereo unspecified),carcinogen call,"Species: MOUSE, Strain/Sex: B6C3F1/FEMALE, Route: GAVAGE, 25, 50 MG/KG IN DISTILLED WATER 5 D/WK FOR 103 WK (STUDY DURATION: 105 WK), 25, 50 MG/KG IN DISTILLED WATER 5 D/WK FOR 103 WK (STUDY DURATION: 105 WK), Tumor Site: Type of Lesion: SUBCUTANEOUS TISSUE: SARCOMA, SARCOMA OR FIBROSARCOMA, MAMMARY GLAND: ADENOCARCINOMA, ADENOMA OR FIBROADENOMA OR ADENOCA",active; positive
same,carcinogen call,"Species: MOUSE, Strain/Sex: B6C3F1/MALE, Route: GAVAGE, 25, 50 MG/KG IN DISTILLED WATER 5 D/WK FOR 103 WK (STUDY DURATION: 105 WK), 25, 50 MG/KG IN DISTILLED WATER 5 D/WK FOR 103 WK (STUDY DURATION: 105 WK), Tumor Site: Type of Lesion: SKIN: SQUAMOUS CELL PAPILLOMA, LUNG: ALVEOLAR/BRONCHIOLAR ADENOMA OR CARCINOMA, LIVER: HEPATOCELLULAR ADENOMA, HEPATOCEL, Tumor Site: Type of Lesion: SKIN: SQUAMOUS CELL PAPILLOMA, LUNG: ALVEOLAR/BRONCHIOLAR ADENOMA OR CARCINOMA, LIVER: HEPATOCELLULAR ADENOMA, HEPATOCEL",active; positive
same,carcinogen call,"Species: RAT, Strain/Sex: F344/FEMALE, Route: GAVAGE, 37.5, 75 MG/KG IN DISTILLED WATER 5 D/WK FOR 103 WK (STUDY DURATION: 104 WK), 37.5, 75 MG/KG IN DISTILLED WATER 5 D/WK FOR 103 WK (STUDY DURATION: 104 WK), Tumor Site: Type of Lesion: HEMATOPOIETIC SYSTEM: MONONUCLEAR CELL LEUKEMIA, ORAL CAVITY (MOUTH OR TONGUE): SQUAMOUS CELL PAPILLOMA OR CARCINOMA, FO, Tumor Site: Type of Lesion: HEMATOPOIETIC SYSTEM: MONONUCLEAR CELL LEUKEMIA, ORAL CAVITY (MOUTH OR TONGUE): SQUAMOUS CELL PAPILLOMA OR CARCINOMA, FO",active; positive
same,carcinogen call,"Species: RAT, Strain/Sex: F344/MALE, Route: GAVAGE, 37.5, 75 MG/KG IN DISTILLED WATER 5 D/WK FOR 103 WK (STUDY DURATION: 104 WK), 37.5, 75 MG/KG IN DISTILLED WATER 5 D/WK FOR 103 WK (STUDY DURATION: 104 WK), Tumor Site: Type of Lesion: SKIN: SEBACEOUS GLAND ADENOMA OR BASAL CELL TUMOR OR SEBACEOUS GLAND ADENOCARCINOMA, FORESTOMACH: SQUAMOUS CELL PAPILLOM",active; positive
COc1cccc2c1C(=O)c1c(O)c3c(c(O)c1C2=O)C[C@@](O)(C(C)=O)C[C@@H]3O[C@H]1C[C@H](N)[C@H](O)[C@H](C)O1,carcinogen call,"Species: RAT, Strain/Sex: SPRAGUE-DAWLEY/FEMALE, Route: INTRAVENOUS, 10 MG/KG IN SALINE ONCE (STUDY DURATION: 244 D) (STUDY DURATION: 244 D), Tumor Site: Type of Lesion: MAMMARY GLAND: TUMOR",active; positive
same,carcinogen call,"Species: RAT, Strain/Sex: SPRAGUE-DAWLEY/FEMALE, Route: INTRAVENOUS, 10 MG/KG IN SALINE SOLUTION ONCE (STUDY DURATION: 1 YR), Tumor Site: Type of Lesion: MAMMARY GLAND: ADENOCARCINOMA",active; positive
same,carcinogen call,"Species: RAT, Strain/Sex: SPRAGUE-DAWLEY/FEMALE, Route: SUBCUTANEOUS, 2, 4, 8 UG IN 100 µL SALINE INTO THORACIC AND ABDOMINAL MAMMARY GLANDS ONCE (STUDY DURATION: 6.5 MO), 2, 4, 8 UG IN 100 µL SALINE INTO THORACIC AND ABDOMINAL MAMMARY GLANDS ONCE (STUDY DURATION: 6.5 MO), Tumor Site: Type of Lesion: MAMMARY GLAND: TUMOR",active; positive
same,carcinogen call,"Species: RAT, Strain/Sex: SPRAGUE-DAWLEY/MALE, Route: INTRAVENOUS, 10 MG/KG IN SALINE SOLUTION ONCE (STUDY DURATION: 1 YR), Tumor Site: Type of Lesion: MAMMARY GLAND: ADENOCARCINOMA",active; positive
